As usually defined, the IC50 is the point on the concentration scale where inhibition reaches its midpoint. Lower therefore signals greater potency.

For this experiment, the target named is T1, Amine oxidase [flavin-containing] B (Homo sapiens, UniProt P27338).
T1 sequence (P27338 whole entry): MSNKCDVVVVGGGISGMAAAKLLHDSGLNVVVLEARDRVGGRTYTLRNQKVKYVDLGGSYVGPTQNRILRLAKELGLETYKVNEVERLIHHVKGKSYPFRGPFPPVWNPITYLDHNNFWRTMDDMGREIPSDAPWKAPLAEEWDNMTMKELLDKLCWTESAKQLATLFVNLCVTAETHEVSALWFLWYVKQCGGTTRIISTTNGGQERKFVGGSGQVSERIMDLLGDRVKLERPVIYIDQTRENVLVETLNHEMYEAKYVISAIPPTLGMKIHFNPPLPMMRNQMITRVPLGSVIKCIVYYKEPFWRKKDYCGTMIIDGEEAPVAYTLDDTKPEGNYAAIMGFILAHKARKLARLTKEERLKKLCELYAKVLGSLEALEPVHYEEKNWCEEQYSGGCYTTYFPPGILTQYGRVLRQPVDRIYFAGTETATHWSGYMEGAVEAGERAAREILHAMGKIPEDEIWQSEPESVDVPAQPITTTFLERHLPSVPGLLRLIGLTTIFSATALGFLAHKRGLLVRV
Put plainly: Inhibition of MAOB.
The molecule `C=CCNC(=S)N1N=C(c2ccc(C)cc2)CC1c1cccs1` (configuration not stated) displayed an IC50 of 240 µM.
For `COc1cc(O)ccc1O` the value was 8.9 µM; for `C=CNC(=S)N1N=C(c2ccc(OC)cc2)CC1c1cccs1` (configuration not stated), 65 µM; for `Oc1ccc(/C=C\c2cc(O)cc(O)c2)cc1` [CIS-RESVERATROL], 61 µM.
Turning to `COc1ccc(C2CC(c3ccccc3)=NN2C(C)=O)cc1OC` (configuration not stated), half-maximal inhibition (IC50) required 25 µM.
`NC1CC1(F)c1ccccc1` (configuration not stated) displayed an IC50 of 19 µM.
Then `COc1ccc(C2=NN(C(=S)Nc3ccccc3)C(c3cccs3)C2)cc1` (configuration not stated), with 92 µM; and `Cc1ccc(C2(F)CC2N)cc1` (configuration not stated), with 13 µM.
For `CCOC(=O)/C=C/c1ccc(O)c(OC)c1` [ETHYL FERULATE] the value was 6.7 µM.
In turn, `COc1ccc(C2=NN(C(C)=O)C(c3ccccc3C)C2)c(OC)c1` (configuration not stated) displayed an IC50 of 40 µM.
For `CCNC(=S)N1N=C(c2ccc(OC)cc2)CC1c1cccs1` (configuration not stated) the value was 22 µM; for `CC(=O)NC[C@H]1CN(c2ccc(N3CCOCC3)c(F)c2)C(=O)O1` [LINEZOLID], 17 µM.

The values above are taken from ChEMBL document CHEMBL1153579, “Knowledge based identification of MAO-B selective inhibitors using pharmacophore and structure based virtual screening models” (Eur J Med Chem, 2009).
